The results in this text go back to article PMC5829162, “Rational Design, Synthesis and Biological Evaluation of Pyrimidine-4,6-diamine derivatives as Type-II inhibitors of FLT3 Selective Against c-KIT” (Scientific Reports, 2018).

Where only a bound is given, the exact number is not on record here.

One series concerns Molm14^D835Y. The series is described as follows: Cell proliferation (CellTiter-Glo, 48 h), Molm14 D835Y. The format is cell-based. Particulars: Homo sapiens, MOLM-14; Molm14^D835Y, 48 hours. The source says:
(§1) Stable BaF3 populations expressing activated FLT3 were generated by retroviral spinfection with the appropriate mutated plasmid followed by selection and growth factor withdrawal as previously described. The BaF3 cell line was originally obtained from the laboratory of Charles Sawyers and has not been authenticated. MV411 and Molm14 cells were obtained from the laboratory of Scott Kogan and authenticated by Promega STR analysis in June 2013. All cell lines were mycoplasma-free. Cells were incubated with compounds for 48 hours and proliferation was assessed using CellTiter-Glo (Promega; Madison, WI) according to the manufacturer’s recommendation on a SpectraMax M3 microplate reader using SpectraMax Software (Molecular Devices; Sunnyvale, CA). All cell viability data shown is reflective of experiments performed a minimum of three times. […]
(§2) S13. Cell Cultures: Stable BaF3 populations expressing activated FLT3 were generated by retroviral spinfection with the appropriate mutated plasmid followed by selection and growth factor withdrawal as previously described .4 The BaF3 cell line was originally obtained from the laboratory of Charles Sawyers and has not been authenticated. MV411 and Molm14 cells were obtained from the laboratory of Scott Kogan and authenticated by Promega STR analysis in June
(§3) 2013. All cell lines were mycoplasma -free. Cells were incubated with compounds for 48 hours and proliferation was assessed using CellTiter -Glo (Promega; Madison, WI) according to the manufacturer’s recommendation on a SpectraMax M3 microplate reader using SpectraMax Software (Molecular Devices; Sunnyvale, CA). All cell viability data shown is reflective of experiments performed a minimum of three times.

The next series has as its target T1, FLT3 kinase (Homo sapiens, UniProt P36888).
T1 construct: purchased Invitrogen
T1 sequence (P36888 27-993): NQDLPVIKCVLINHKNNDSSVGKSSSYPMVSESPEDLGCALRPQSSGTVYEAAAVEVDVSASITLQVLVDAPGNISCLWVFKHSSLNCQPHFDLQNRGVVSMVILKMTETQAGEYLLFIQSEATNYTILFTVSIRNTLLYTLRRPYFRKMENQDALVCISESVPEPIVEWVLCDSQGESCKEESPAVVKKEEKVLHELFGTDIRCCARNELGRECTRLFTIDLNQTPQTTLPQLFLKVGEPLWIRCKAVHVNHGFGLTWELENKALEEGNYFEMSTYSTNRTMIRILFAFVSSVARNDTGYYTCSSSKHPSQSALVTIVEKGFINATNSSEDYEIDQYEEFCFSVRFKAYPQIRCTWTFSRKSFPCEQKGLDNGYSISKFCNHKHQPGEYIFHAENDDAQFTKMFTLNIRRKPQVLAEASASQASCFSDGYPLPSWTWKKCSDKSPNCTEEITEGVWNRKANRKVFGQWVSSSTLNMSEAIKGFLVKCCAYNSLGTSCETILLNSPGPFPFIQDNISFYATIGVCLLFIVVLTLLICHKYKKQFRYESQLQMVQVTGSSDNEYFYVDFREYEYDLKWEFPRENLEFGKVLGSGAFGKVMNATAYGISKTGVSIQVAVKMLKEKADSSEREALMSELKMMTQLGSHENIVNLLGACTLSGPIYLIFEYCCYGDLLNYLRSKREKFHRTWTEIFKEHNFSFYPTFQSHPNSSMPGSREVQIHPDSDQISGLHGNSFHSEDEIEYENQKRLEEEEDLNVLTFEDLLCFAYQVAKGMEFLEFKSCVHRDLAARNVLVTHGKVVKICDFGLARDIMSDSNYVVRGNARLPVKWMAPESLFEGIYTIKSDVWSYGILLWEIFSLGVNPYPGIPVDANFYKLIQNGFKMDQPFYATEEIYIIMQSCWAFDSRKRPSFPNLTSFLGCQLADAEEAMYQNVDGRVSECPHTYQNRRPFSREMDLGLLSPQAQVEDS
In words: Biochemical enzyme inhibition assay (microfluidics, Caliper EZ Reader II), FLT3. Particulars: for IC50: in vitro kinase assay, 60 min pre-incubation, ATP 190 µM, three independent experiments, read-out: FLT3 IC50 (nM) ± SD; for LE: ligand efficiency for FLT3 inhibition. The method, then: Kinase activity was measured in a microfluidics assay that monitors the separation of a phosphorylated product from substrate[31],[32]. […] After, 1 μL was transferred into a 384-well polypropylene assay plate (Greiner, Frickenhausen, Germany). The FLT3 enzyme (Invitrogen™, Grand Island, USA) was diluted in kinase buffer to a concentration of 2 nM and 5 µL of the enzyme mixture was transferred to the assay plate. The inhibitors/FLT3 enzyme were incubated for 60 minutes with minor shaking. […] For positive control, no inhibitor was added. For negative control, no enzyme was added. For running control, quizartinib was utilized. The plate was run until 10–20% conversion based on the positive control wells. The following separation conditions were utilized: upstream voltage −500V; downstream voltage, −1900V; chip pressure −0.8. Percent inhibition was measured for each well comparing starting peptide to phosphorylated product peaks relative to the baseline. Dose response curves, spanning the IC50 dose, were generated in GraphPad Prisim 6 and fit to an exponential one-phase decay line and IC50 values were obtained from the half-life value of the curve. IC50 values were generated in duplicate and error was calculated from the standard deviation between values.
S10. Biochemical Inhibition Assay:1,2 Kinase activity was measured in a microfluidics assay that monitors the separation of a phosphorylated product from substrate. The assay was run using a 12-sipper chip on a Caliper EZ Reader II (PerkinElmer®, Walthman, USA) with separation […]
Walthman, USA]). In 96-well polypropylene plates (Greiner, Frickenhausen, Germany) […]
After, 1 μL was transferred into a 384-well polypropylene assay plate (Greiner, Frickenhausen, Germany). The FLT3 enzyme (Invitrogen™, Grand Island, USA) was diluted in kinase buffer to a concentration of 2 nM and 5 µL of the enzyme mixture was transferred to the assay plate. The inhibitors/FLT3 enzyme were incubated for 60 minutes with minor shaking. A substrate mix was prepared containing ATP (Ambresco®, Solon, USA) and […]
USA) dissolved in kinase buffer, and 5 µL of the substrate mix was added to the assay plate.
For positive control, no inhibitor was added. For negative control, no enzyme was added. For running control, quizartinib was utilized. The plate was run until 10-20% conversion based on the positive control wells. The following separation conditions were utilized: upstream voltage -500V; downstream voltage, -1900V; chip pressure - 0.8. Percent inhibition was measured for each well comparing starting peptide to phosphorylated product peaks relative to the baseline. Dose response curves, spanning the IC50 dose, were generated in GraphPad Prisim 6 and fit to an exponential one-phase decay line and IC50 values were obtained from the half-life value of the curve. IC50 values were generated in duplicate and error was calculated from the standard deviation between values. […]

Another series deals with MV4–11 AML cells. The series is described as follows: Cell proliferation (CellTiter-Glo, 48 h), MV4-11. Particulars: Homo sapiens; MV4–11, 48 hours. The format is cell-based.
Source text: as §1, §2, §3
A general note: Cellular ATP, detected with luciferase, serves as a proxy for viable cell number.

The test system of another series is Ba/F3 FLT3-ITD. The series is described as follows: Cell proliferation (CellTiter-Glo, 48 h), Ba/F3 FLT3-ITD. It counts as cell-based.
Source text: as §1, §2, §3

The next series deals with Molm14^F691L. In words: Cell proliferation (CellTiter-Glo, 48 h), Molm14 F691L. Particulars: Homo sapiens, MOLM-14; Molm14^F691L, 48 hours. The format is cell-based.
Source text: as §1, §2, §3

Another series has as its system Molm14 par. The series is described as follows: Cell proliferation (CellTiter-Glo, 48 h), Molm14 par. It counts as cell-based. Particulars: Homo sapiens, MOLM-14.
Source text: as §1, §2, §3

For another series, the system named is FLT3-driven cell lines. In words: Cell-based studies, FLT3-driven cell lines overall. Particulars: result in words.
Source text: as §1
S13. […]
2013. […] Cells were incubated with compounds for 48 hours and proliferation was assessed using CellTiter -Glo (Promega; Madison, WI) according to the manufacturer’s recommendation on a SpectraMax M3 microplate reader using SpectraMax Software (Molecular Devices; Sunnyvale, CA). […]

The term GI50 denotes the concentration at which growth is held to half of that of the control. The low end stands for greater sensitivity of the cells, the high end for lower sensitivity of the cells. By IC50 is commonly meant the point on the concentration scale where inhibition reaches its midpoint. The term melting point denotes the temperature of the solid-liquid transition. `CNc1cc(Nc2ccc(CC(=O)Nc3cc(C(C)(C)C)nn3C)cc2)ncn1` [13b, 2-(4-(6-(Methylamino)pyrimidin-4-ylamino)phenyl)-N-(3-tert-butyl-1-methyl-1H-pyrazol-5-yl)acetamide]: the melting point lay within 194 to 196 °C. In addition, the GI50 with Molm14^D835Y was 2230 nM. On FLT3 kinase, the IC50 is 37.5 ± 13 nM and the LE came out at 0.35. Further, growth with MV4–11 AML cells was halved (GI50) at 80.6 nM. In the series with Ba/F3 FLT3-ITD, this compound came in with a GI50 of 158 nM. In addition, the GI50 in the series on Molm14^F691L is 1350 nM. The compound further came in with a GI50 in the series on Molm14 par of 187 nM.

Regarding `CNc1cc(Nc2ccc(CC(=O)Nc3ccc(S(C)(=O)=O)cc3)cc2)ncn1` [13v, 2-(4-(6-(methylamino)pyrimidin-4-ylamino)phenyl)-N-(4-(methylsulfonyl)phenyl) acetamide], the melting point was 220 to 222 °C. The GI50 in the series with Molm14^D835Y was more than 10000 nM. Besides, on FLT3 kinase, the IC50 was 2120 ± 401 nM and the LE was 0.27. In addition, the GI50 in the series on MV4–11 AML cells is more than 10000 nM. Moreover, in the series with Ba/F3 FLT3-ITD, the GI50 was more than 10000 nM. Further, in the series on Molm14^F691L, the GI50 is more than 10000 nM. For the same compound, the GI50 in the series with Molm14 par is more than 10000 nM.

`CNc1cc(Nc2ccc(CC(=O)Nc3cccc(C(F)(F)F)c3)cc2)ncn1` [13r, 2-(4-(6-(Methylamino)pyrimidin-4-ylamino)phenyl)-N-(3-(trifluoromethyl)phenyl) acetamide] showed a melting point of 216 to 218 °C. Also, the GI50 with Molm14^D835Y came to 2230 nM. At FLT3 kinase, the IC50 amounted to 411 ± 236 nM and the LE came out at 0.30. This compound registered a GI50 in the series on MV4–11 AML cells of 80.6 nM. The same compound showed a GI50 in the series with Ba/F3 FLT3-ITD of 266 nM. Moreover, growth in the series on Molm14^F691L was halved (GI50) at 1350 nM. Moreover, halving of growth in the series on Molm14 par (GI50) required 187 nM.

On to `Cn1nc(C(C)(C)C)cc1NC(=O)Cc1ccc(Nc2cc(NCCCN3CCCC3)ncn2)cc1` [13d, 2-(4-(6-(3-(Pyrrolidin-1-yl)propylamino)pyrimidin-4-ylamino)phenyl)-N-(3-tert-butyl-1-methyl-1H-pyrazol-5-yl)acetamide], for which, at FLT3 kinase, the IC50 was 377 ± 20 nM and the LE was found to be 0.24. Further, the GI50 with MV4–11 AML cells came out at 2250 nM. Moreover, the “inhibition of FLT3-driven cellular growth” value in the series with FLT3-driven cell lines was “failed to effectively inhibit FLT3-driven cellular growth”.
